From patent US20100267067A1, “Synthase Inhibitor Screening Method” (priority 2007, published 2010)

Columns and labels:
Format in all cases: cell-based
[1] = system: Saccharomyces cerevisiae JG 169; test: Yeast growth on triglyceride (olive oil) plates containing cerulenin; settings: 5 mg cerulenin per approx. 510 ml SC-ura agar with olive oil; pENI4158 (lipase) vs pENI3659 (control) transformants
Protocol: Plasmids pENI3659 (control) and pENi4158 (with lipase gene) were transformed into the yeast strain Saccharomyces cerevisiae JG 169 (MAT-alpha; ura 3-52; leu 2-3, 112; his 3-D200; pep 4-113; prc1::HIS3; prb1::LEU2). The transformed yeast was streaked onto plates containing cerulenine and olive oil.
To 450 ml SC-ura-basic agar was added 50 ml 20% glucose and 10 ml olive oil. An UltraTurax™ […] (IKA Labortechnik, Germany) was used to disperse the olive oil. 5 mg cerulenin dissolve in 1 ml ethanol was added and 500 microliter ampicillin (100 mg/ml)). This mix was poured into […] 9 cm petri dishes.
SC-ura-basic agar: 7.5 g Yeast Nitrogen Base without amino acids, 11.3 g Bernstein, 6.8 g NaOH, 5.6 g casamino acids, 0.1 g L-tryptophan, 20 g agar in total of 900 ml water.

[2] = system: Bacillus strain secreting inactive 10R protease (S143A) (SOL218); test: Plate growth of Bacillus secreting inactive 10R protease on LB agar with MGMM and CMA; settings: LB agar with MGMM, 37° C. overnight
From the text: (§1) We wanted to find a concentration of carboxymethoxylhydroxylamine (CMA) that allows only protease-secreting Bacillus colonies to grow in the presence of the small peptide met-gly-met-met (MGMM). CMA inhibits the methionine synthesis in Bacillus cells, which severely hampers their growth. However, in the presence of MGMM, protease-secreting Bacillus cells can grow on CMA containing media. Secreted proteases degrade the MGMM peptide thereby releasing free methionine residues, which are taken up by the protese-secreting Bacillus cells and used for protein synthesis.
(§2) 500 ml LB agar was melted and placed in an incubator until the agar reached 60° C. 5 ml met-gly-met-met (MGMM, Sigma M4786-250MG) (5 mg/ml) and 300 microliter 1% chloramphenicol (in 70% ethanol) was added to the agar.
(§3) 4×25 ml media was transferred with a 25 ml Stripette™ to clean 25 ml Nunc™ containers. Different amounts of CMA (Aldrich C13408-1 g) were added to the media as indicated in the scheme below. All 25 ml media was poured into 9 cm petri dishes and dried in a clean bench; except for the “6×CMA on the plate” where 25 ml media was poured on a 9 cm petridish and dried and 600 microliter CMA (0.56 mg/ml) was spread on the plate afterwards.
(§4) The two micro-organisms were streaked on the 6 different types of plates. All plates were incubated upside down at 37° C. overnight.

[3] = system: Bacillus strain secreting a wildtype protease denoted '10R' (SOL000); test: Plate growth of Bacillus secreting wildtype 10R protease on LB agar with MGMM and CMA; settings: for Growth on the plate, 10R WT (SOL000): LB agar with MGMM, 37° C. overnight
From the text: as §1, §2, §3, §4

[4] = 5xCMA in the plate, 11.2 mg/L CMA
[5] = 6xCMA in the plate, 13.4 mg/L CMA
[6] = 6xCMA on the plate (spread on dried plate), 13.4 mg/L CMA
[7] = 7xCMA in the plate, 15.7 mg/L CMA
[8] = 8xCMA in the plate, 17.9 mg/L CMA

Structure (SMILES) | Growth of transformed yeast on the triglyceride plates in the presence of cerulinine [1] | Growth on the plate, 10R inactive (SOL218) [2, 4] | Growth on the plate, 10R inactive (SOL218) [2, 5] | Growth on the plate, 10R inactive (SOL218) [2, 6] | Growth on the plate, 10R inactive (SOL218) [2, 7] | Growth on the plate, 10R inactive (SOL218) [2, 8] | Growth on the plate, 10R WT (SOL000) [3, 4] | Growth on the plate, 10R WT (SOL000) [3, 5] | Growth on the plate, 10R WT (SOL000) [3, 6] | Growth on the plate, 10R WT (SOL000) [3, 7] | Growth on the plate, 10R WT (SOL000) [3, 8] | Growth of Bacillus transformant cells which secrete active 10R protease, versus those that do not ([3]; LB agar with 11.2 mg/L CMA as well as MGMM in the plate, summary of Table 3)
C/C=C/C/C=C/CCC(=O)[C@H]1O[C@H]1C(N)=O [cerulinine, cerulenin] | Only yeast cells transformed with pENI4158, which express active lipase, were able to grow |  |  |  |  |  |  |  |  |  |  | 
O=C(O)CONO [CMA, carboxymethoxylhydroxylamine] |  | No | No | No | No | No | Yes | No | No | No | No | only those can grow
